The record followed here is patent US9090632B2, “Bicyclic oxazole and thiazole compounds and their use as allosteric modulators of mGluR5 receptors” (Vanderbilt University, priority 2010, dated 2015).

This test addresses human mGluR5 (Homo sapiens, UniProt P41594). Kind of test: Cell-based functional Ca2+ mobilization assay, potentiation of glutamate EC20 response (H10H cell-line). The conditions noted are these: H10H cell-line expressing recombinant human mGluR5; for Emax / Emax (%): in presence of glutamate EC20, normalized to maximal glutamate response; for EC50 / pEC50: potentiation in presence of glutamate EC20. How it is done:
Human embryonic kidney (HEK) cells transfected with rat mGluR5 were plated in clear bottom assay plates for assay in a Functional Drug Screening System (FDSS). In the alternative assay, HEK cells transfected with human mGluR5 were plated for assay in the FDSS. In some cases the HEK cells transfected with human mGluR5 are the H10H cell line. Alternatively, the HEK cells transfected with human mGluR5 are the H12H cell line. […] The cells were loaded with a Ca^2+-sensitive fluorescent dye (e.g., Fluo-4), and the plates were washed and placed in the FDSS instrument. After establishment of a fluorescence baseline for about three seconds, the compounds of the present invention were added to the cells, and the response in cells was measured. Five minutes later, an mGluR5 agonist (e.g., glutamate, 3,5-dihydroxyphenylglycine, or quisqualate) was added to the cells, and the response of the cells was measured. Potentiation of the agonist response of mGluR5 by the compounds in the present invention was observed as an increase in response to non-maximal concentrations of agonist (here, glutamate) in the presence of compound compared to the response to agonist in the absence of compound.
The above described assay can be operated in two modes. In the first mode, a range of concentrations of the present compounds were added to cells, followed by a single fixed concentration of agonist. If a compound acted as a potentiator, an EC50 value for potentiation and a maximum extent of potentiation by the compound at this concentration of agonist was determined by non-linear curve fitting. In the second mode, several fixed concentrations of the present compounds were added to various wells on a plate, followed by a range of concentrations of agonist for each concentration of present compound; the EC50 values for the agonist at each concentration of compound were determined by non-linear curve fitting. A decrease in the EC50 value of the agonist with increasing concentrations of the present compounds (a leftward shift of the agonist concentration-response curve) is an indication of the degree of mGluR5 potentiation at a given concentration of the present compound. An increase in the EC50 value of the agonist with increasing concentrations of the present compounds (a rightward shift of the agonist concentration-response curve) is an indication of the degree of mGluR5 antagonism at a given concentration of the present compound. The second mode also indicates whether the present compounds also affect the maximum response to mGluR5 to agonists.
Human mGluR5a cDNA in pCMV6-XL6 mammalian expression plasmid was purchased from OriGene Technologies, Inc. (catalogue number SC326357) and subcloned into pcDNA3.1(−). Human embryonic kidney (HEK) 293A cells were then transfected with human mGluR5a pcDNA3.1(−) using LipofectAmine 2000 (Invitrogen) and monoclones were selected and tested for functional response using a Ca^2+ mobilization assay. Monoclones were named for the species (“H” for human) plus the location on the plate (e.g. “10H”).
HEK cells transfected with the human mGluR5a receptor were plated at 15,000 cells/well in clear-bottomed poly-D-lysine-coated assay plates (BD Falcon) in glutamate-glutamine-free growth medium and incubated overnight at 37° C. and 5% CO2. The cell-line used to obtain the data reported herein was the H10H cell-line expressing the human mGluR5 receptor. Although the H10H cell-line was used to obtain the data shown herein, the H12H cell-line expressing the human mGluR5 receptor can also be used in these assays. The following day, the growth medium was removed and the cells were washed with assay buffer containing 1× Hank's balanced salt solution (Invitrogen, Carlsbad, Calif.), 20 mM HEPES, 2.5 mM probenecid, pH 7.4 and left with 20 μL of this reagent. Following this step, the cells were loaded with calcium indicator dye, fluo-4 AM, to a final concentration of 2 μM and incubated for 40-45 min at 37° C. […]
A general note: Calcium assays in cells follow changes in intracellular calcium, usually with a dye or a luminescent sensor.

human mGluR5, sequence (P41594 21-1180 isoform P41594-2 limits assumed): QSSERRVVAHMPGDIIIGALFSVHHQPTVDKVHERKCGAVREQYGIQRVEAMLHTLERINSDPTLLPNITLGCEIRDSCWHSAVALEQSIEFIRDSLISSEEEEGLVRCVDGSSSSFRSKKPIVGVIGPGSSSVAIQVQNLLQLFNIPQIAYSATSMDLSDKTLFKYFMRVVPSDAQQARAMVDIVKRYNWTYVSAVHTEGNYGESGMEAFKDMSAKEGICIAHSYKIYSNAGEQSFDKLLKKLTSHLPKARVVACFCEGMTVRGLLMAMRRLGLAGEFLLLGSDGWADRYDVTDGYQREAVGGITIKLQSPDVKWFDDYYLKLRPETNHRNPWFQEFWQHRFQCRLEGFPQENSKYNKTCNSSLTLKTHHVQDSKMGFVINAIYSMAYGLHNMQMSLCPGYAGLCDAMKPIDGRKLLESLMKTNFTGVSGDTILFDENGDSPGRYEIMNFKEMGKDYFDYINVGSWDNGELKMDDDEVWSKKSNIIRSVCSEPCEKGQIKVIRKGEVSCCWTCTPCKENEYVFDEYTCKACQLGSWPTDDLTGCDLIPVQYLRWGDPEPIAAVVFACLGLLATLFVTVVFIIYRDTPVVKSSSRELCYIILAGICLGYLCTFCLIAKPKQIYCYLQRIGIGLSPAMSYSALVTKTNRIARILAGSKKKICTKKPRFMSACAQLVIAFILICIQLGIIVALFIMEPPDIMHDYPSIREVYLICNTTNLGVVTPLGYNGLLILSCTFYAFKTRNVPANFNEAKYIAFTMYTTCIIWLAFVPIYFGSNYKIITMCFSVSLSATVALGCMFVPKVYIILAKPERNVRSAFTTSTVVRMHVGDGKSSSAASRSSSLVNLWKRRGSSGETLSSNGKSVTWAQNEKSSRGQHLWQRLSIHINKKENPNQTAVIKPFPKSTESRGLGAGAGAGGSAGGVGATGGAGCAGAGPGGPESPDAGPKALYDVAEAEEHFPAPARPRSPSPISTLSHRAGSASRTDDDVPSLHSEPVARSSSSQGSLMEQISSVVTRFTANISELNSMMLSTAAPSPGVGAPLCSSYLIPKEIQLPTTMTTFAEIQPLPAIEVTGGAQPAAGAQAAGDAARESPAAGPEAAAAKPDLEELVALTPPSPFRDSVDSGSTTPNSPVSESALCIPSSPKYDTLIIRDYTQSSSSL

`O=C(c1ccc(F)cc1)N1CCc2nc(COc3cnccn3)oc2C1` [Example B152]: the Emax – broadly, the size of the effect at its maximum, as opposed to the concentration needed – came out at 36% and the EC50 (commonly the midpoint of the concentration-response curve) was over 10 µM. With `O=C(c1ccc(F)cc1)N1CCc2nc(COc3ccc(C(F)(F)F)cc3)oc2C1` [Example B128], the “Emax (%)” value was 25% and the pEC50 – broadly, −log10 of the EC50, conventionally taken in molar units – is given as under 4.52. Regarding `N#Cc1cccc(OCc2nc3c(o2)CN(C(=O)c2ccc(F)cc2)CC3)c1` [Example B53], the Emax is 66.5% and the EC50 is 1.26 µM. For `O=C(c1ccccn1)N1CCc2nc(COc3ccccc3)oc2C1` [Example B23], the “Emax (%)” value stood at 54% and the negative logarithm of the EC50 (pEC50) is given as under 5. With `O=C(c1ccc(F)cc1)N1CCc2nc(COc3ccncc3)oc2C1` [Example B73], the “Emax (%)” value amounted to 73% and the pEC50 is 5.78. As to `CC(Oc1ccccc1)C(=O)N1CCc2nc(COc3ccccc3)oc2C1` (stereo not drawn) [Example B81], the Emax is 63% and the 50% effective concentration (EC50) is 1.91 µM. For `O=C(OCc1ccccc1)N1CCc2nc(COc3ccccc3)oc2C1` [Example B20], the “Emax (%)” value was 72% and the pEC50 is 5.82. Take `O=C(c1cc2ccccc2o1)N1CCc2nc(COc3ccccc3)oc2C1` [Example B120]: the maximum response (Emax) was 67% and the half-maximal effective concentration (EC50) is over 10 µM. As to `Cn1ccc(Cl)c1C(=O)N1CCc2nc(COc3ccccc3)oc2C1` [Example B113], the “Emax (%)” value is 45% and the pEC50 turned out to be 6.58.

As for `O=C(c1ccc(Cl)s1)N1CCc2nc(COc3ccccc3)oc2C1` [Example B109], the maximum response (Emax) was determined as 73.5% and the EC50 was 0.0661 µM.

With `O=C(c1ccc(S(F)(F)(F)(F)F)cc1)N1CCc2nc(COc3ccccc3)oc2C1` [Example B52], the “Emax (%)” value is 51% and the negative logarithm of the EC50 (pEC50) was 5.24.

Turning to `O=C(c1ccc(F)cc1)N1CCc2nc(COc3ccccc3)oc2CC1` [Example B4, 6-[(4-fluorophenyl)carbonyl]-2-(phenoxymethyl)-5,6,7,8-tetrahydro-4H-[1,3]oxazolo[4,5-d]azepine], the Emax was 76% and the half-maximal effective concentration (EC50) was 3.39 µM. Turning to `O=C(c1ccc(F)cc1)N1CCc2nc(COc3ccc(F)c(F)c3)oc2C1` [Example B11], the maximal effect (Emax) amounted to 60% and the pEC50 was 6.19. For `O=C(CCc1ccccc1)N1CCc2nc(COc3ccccc3)oc2C1` [Example B64], the Emax is 59% and the EC50 was 0.813 µM. As to `O=C(C1CCc2cc(F)ccc2O1)N1CCc2nc(COc3ccccc3)oc2C1` (stereo not drawn) [Example B82], the “Emax (%)” value came out at 62% and the pEC50 was 5.7. Consider `CC(C)(C)OCC(=O)N1CCc2nc(COc3ccccc3)oc2C1` [Example B55], for which the maximum response (Emax) came out at 14%. For the compound `O=C(CC(F)(F)F)N1CCc2nc(COc3ccccc3)oc2C1` [Example B116], the maximal response (Emax) worked out at 33% and the EC50 is over 10 µM. For `O=C(C1CC1)N1CCc2nc(COc3ccccc3)oc2C1` [Example B32] the same measures were 39% and 3.02 µM. Consider `O=C(c1ccc(F)c(F)c1)N1CCc2nc(COc3cccc(F)c3)oc2C1` [Example B29], for which the “Emax (%)” value is listed as 75% and the negative logarithm of the EC50 (pEC50) amounted to 6.62.

Turning to `O=C(Cc1ccc(F)cc1)N1CCc2nc(COc3ccccc3)oc2C1` [Example B134], the maximal response (Emax) came out at 61% and the EC50 was 1.2 µM. Taken in the same sequence, the figures for `O=C(c1ccc(F)cc1)N1CCc2nc(CCc3ccccc3)oc2C1` [Example B131, 5-[(4-fluorophenyl)carbonyl]-2-(2-phenylethyl)-4,5,6,7-tetrahydro[1,3]oxazolo[5,4-c]pyridine] were 24% and over 30.2 µM. `O=C(c1ccc2nccnc2c1)N1CCc2nc(COc3ccccc3)oc2C1` [Example B91]: the “Emax (%)” value was found to be 59% and the negative logarithm of the EC50 (pEC50) is listed as 5.63. Consider `O=C(c1ccc(Br)o1)N1CCc2nc(COc3ccccc3)oc2C1` [Example B106], for which the maximum response (Emax) was 61% and the concentration giving a half-maximal response (EC50) is 0.0851 µM. Consider `O=C(c1cnc(C(F)(F)F)nc1)N1CCc2nc(COc3ccccc3)oc2C1` [Example B118], for which the “Emax (%)” value turned out to be 37% and the negative logarithm of the EC50 (pEC50) was under 5. For the compound `O=C(c1ccc[nH]1)N1CCc2nc(COc3ccccc3)oc2C1` [Example B58], the Emax was 31% and the EC50 was 0.603 µM. Taken in the same sequence, the figures for `O=C(c1cnco1)N1CCc2nc(COc3ccccc3)oc2C1` [Example B59] were 40.5% and 2.95 µM. Taken in the same sequence, the figures for `O=C(c1ccc(F)cc1)N1CCc2nc(/C=C/c3ccccc3)oc2C1` [Example B14] were 48% and 1.55 µM. Taken in the same sequence, the figures for `Cc1cccc(OCc2nc3c(o2)CN(C(=O)c2ccc(F)cc2)CC3)n1` [Example B133] were 32% and over 10 µM. Regarding `Cc1ccc(C(=O)N2CCc3nc(COc4ccccc4)oc3C2)cn1` [Example B132], the maximal response (Emax) is 49% and the EC50 was over 10 µM.

In the case of `O=C(c1c[nH]cn1)N1CCc2nc(COc3ccccc3)oc2C1` [Example B154], the maximal response (Emax) came to 26% and the EC50 is over 30.2 µM. Taken in the same sequence, the figures for `O=C(c1ccc(F)cc1)N1CCc2nc(COc3ccccn3)oc2C1` [Example B68] were 71% and 2.4 µM. Taken in the same sequence, the figures for `O=C(COc1ccccc1)N1CCc2nc(COc3ccccc3)oc2C1` [Example B80] were 60% and 1.91 µM.

Regarding `O=C(c1c[nH]c2cccnc12)N1CCc2nc(COc3ccccc3)oc2C1` [Example B145], the Emax came out at 50% and the 50% effective concentration (EC50) was over 10 µM.

Turning to `COc1ccc(C(=O)N2CCc3nc(COc4ccccc4)oc3C2)s1` [Example B102], the “Emax (%)” value is listed as 66% and the pEC50 turned out to be 6.34. Consider `O=C(c1ncccn1)N1CCc2nc(COc3ccccc3)oc2C1` [Example B160], for which the “Emax (%)” value came out at 16% and the negative logarithm of the EC50 (pEC50) is under 4.52. As to `Cn1cncc1C(=O)N1CCc2nc(COc3ccccc3)oc2C1` [Example B158], the maximal response (Emax) worked out at 27% and the EC50 is over 30.2 µM. `Cc1cccnc1C(=O)N1CCc2nc(COc3ccccc3)oc2C1` [Example B42]: the “Emax (%)” value stood at 58% and the negative logarithm of the EC50 (pEC50) was under 5.

For the compound `Cc1ncccc1C(=O)N1CCc2nc(COc3ccccc3)oc2C1` [Example B41], the Emax turned out to be 50% and the EC50 was 6.03 µM.

For the compound `O=C(c1ccc(F)cc1)N1CCc2nc(COc3cncc(F)c3)oc2C1` [Example B48], the “Emax (%)” value was found to be 62% and the negative logarithm of the EC50 (pEC50) worked out at 5.49. For the compound `O=C(c1n[nH]c2ccccc12)N1CCc2nc(COc3ccccc3)oc2C1` [Example B126], the Emax turned out to be 72% and the EC50 was 0.389 µM. Regarding `O=C(c1ccc(F)cc1)N1CCc2nc(COc3ccc(F)cc3)oc2C1` [Example B10], the Emax turned out to be 75% and the negative logarithm of the EC50 (pEC50) was 6.18. On to `O=C(c1ccc(=O)[nH]c1)N1CCc2nc(COc3ccccc3)oc2C1` [Example B139], for which the maximum response (Emax) turned out to be 10% and the EC50 is over 30.2 µM. Take `N#Cc1ccc(C(=O)N2CCc3nc(COc4ccccc4)oc3C2)cc1F` [Example B90]: the “Emax (%)” value is 58% and the negative-log EC50 (pEC50) is given as 5.66. With `O=C(c1n[nH]c2cccnc12)N1CCc2nc(COc3ccccc3)oc2C1` [Example B144], the Emax stood at 39% and the negative logarithm of the EC50 (pEC50) is listed as over 5.
